This is an account of results in ChEMBL document CHEMBL4602688, “Bromopyrrole Alkaloids of the Sponge Agelas oroides Collected Near the Israeli Mediterranean Coastline” (J Nat Prod, 2020).

Assay type in all cases: functional, organism-based
One experiment relates to Pseudomonas aeruginosa. Kind of experiment: Antibiofilm activity against Pseudomonas aeruginosa PAO1 assessed as inhibition of biofilm formation incubated for 24 hrs by crystal violet staining based assay. Conditions: PAO1, 24 h.
Experiment [1] has as its system Lysinibacillus. Kind of experiment: Growth inhibition of Lysinibacillus isolate Eys09 after 24 hrs. The conditions noted are these: isolate Eys09, 24 h.
Experiment [2] deals with Kocuria. Kind of experiment: Growth inhibition of Kocuria isolate Eys10 after 24 hrs. Conditions: isolate Eys10, 24 h.
Experiment [3] relates to Pseudomonas sp. NB86. Kind of experiment: Growth inhibition of Pseudomonas sp. NB86 after 24 hrs. The conditions noted are these: Pseudomonas sp. NB86, 24 h.
In a further experiment the test system is Sporosarcina sp. NB90. Kind of experiment: Growth inhibition of Sporosarcina sp. NB90 after 24 hrs. The conditions noted are these: Sporosarcina sp. NB90, 24 h.
In experiment [4] the test system is Pseudomonas sp. Kind of experiment: Growth inhibition of Pseudomonas sp. isolate ISP2_16 after 24 hrs. Conditions: isolate ISP2_16, 24 h.
For experiment [5], the system named is Pseudomonas sp. Kind of experiment: Growth inhibition of Pseudomonas sp. isolate ISP2_Ab after 24 hrs.
Experiment [6] deals with Pseudomonas sp. Kind of experiment: Growth inhibition of Pseudomonas sp. isolate ISP2_A10pp after 24 hrs.
A further experiment has as its system Bacillus sp. Kind of experiment: Growth inhibition of Bacillus sp. isolate ISP2_A_B after 24 hrs. Conditions: Bacillus sp. (in: firmicutes).
Experiment [7] has as its system Lysinibacillus. Kind of experiment: Antibiofilm activity against Lysinibacillus isolate Eys09 assessed as inhibition of biofilm formation incubated for 24 hrs by crystal violet staining based assay. Conditions: isolate Eys09, 24 h.
For experiment [8], the system named is Kocuria. Kind of experiment: Antibiofilm activity against Kocuria isolate Eys10 assessed as inhibition of biofilm formation incubated for 24 hrs by crystal violet staining based assay. Conditions: isolate Eys10, 24 h.
Experiment [9] relates to Pseudomonas sp. NB86. Kind of experiment: Antibiofilm activity against Pseudomonas sp. NB86 assessed as inhibition of biofilm formation incubated for 24 hrs by crystal violet staining based assay. Conditions: Pseudomonas sp. NB86, 24 h.
Experiment [10] has as its system Pseudomonas sp. Kind of experiment: Antibiofilm activity against Pseudomonas sp. isolate ISP2_16 assessed as inhibition of biofilm formation incubated for 24 hrs by crystal violet staining based assay. The conditions noted are these: isolate ISP2_16, 24 h.
In experiment [11] the test system is Pseudomonas sp. Kind of experiment: Antibiofilm activity against Pseudomonas sp. isolate ISP2_Ab assessed as inhibition of biofilm formation incubated for 24 hrs by crystal violet staining based assay.
For experiment [12], the system named is Pseudomonas sp. Kind of experiment: Antibiofilm activity against Pseudomonas sp. isolate ISP2_A10pp assessed as inhibition of biofilm formation incubated for 24 hrs by crystal violet staining based assay.

With `NC(=O)c1cc(Br)c(Br)[nH]1`, the IC50 with Pseudomonas aeruginosa amounted to 15 µM.
For `Nc1ncc(/C=C/CNC(=O)c2cc(Br)c(Br)[nH]2)[nH]1` [OROIDIN], the IC50 with Pseudomonas aeruginosa was 5.1 µM; with Lysinibacillus [1], 77 µM; in the experiment with Kocuria [2], 51 µM; with Pseudomonas sp. NB86 [3], 330 µM; with Sporosarcina sp. NB90, 31 µM; in the experiment with Pseudomonas sp. [4], 170 µM. Besides, the IC50 in the experiment with Pseudomonas sp. [5] turned out to be 310 µM; in the experiment with Pseudomonas sp. [6], 150 µM; in the experiment with Bacillus sp. it was 39 µM; in the experiment with Lysinibacillus [7], 7.7 µM; in the experiment on Kocuria [8], 10 µM; in the experiment with Pseudomonas sp. NB86 [9], 57 µM. Moreover, the IC50 in the experiment on Pseudomonas sp. [10] is 39 µM; in the experiment on Pseudomonas sp. [11] it was 3.9 µM; in the experiment on Pseudomonas sp. [12], 10 µM.
For the compound `Nc1nc2c([nH]1)c1c(c3[nH]c(N)nc32)[C@H](CNC(=O)c2cc(Br)c(Br)[nH]2)[C@H]1CNC(=O)c1cc(Br)c(Br)[nH]1` [BENZOSCEPTRIN C], the IC50 in the experiment with Pseudomonas aeruginosa came out at 10 µM.
